# Data as given in paper PMC5491371 (Clinical cancer research : an official journal of the …, 2016).
# Target: T1, ITK (Homo sapiens, UniProt Q08881)
# T1 sequence (Q08881 1-620): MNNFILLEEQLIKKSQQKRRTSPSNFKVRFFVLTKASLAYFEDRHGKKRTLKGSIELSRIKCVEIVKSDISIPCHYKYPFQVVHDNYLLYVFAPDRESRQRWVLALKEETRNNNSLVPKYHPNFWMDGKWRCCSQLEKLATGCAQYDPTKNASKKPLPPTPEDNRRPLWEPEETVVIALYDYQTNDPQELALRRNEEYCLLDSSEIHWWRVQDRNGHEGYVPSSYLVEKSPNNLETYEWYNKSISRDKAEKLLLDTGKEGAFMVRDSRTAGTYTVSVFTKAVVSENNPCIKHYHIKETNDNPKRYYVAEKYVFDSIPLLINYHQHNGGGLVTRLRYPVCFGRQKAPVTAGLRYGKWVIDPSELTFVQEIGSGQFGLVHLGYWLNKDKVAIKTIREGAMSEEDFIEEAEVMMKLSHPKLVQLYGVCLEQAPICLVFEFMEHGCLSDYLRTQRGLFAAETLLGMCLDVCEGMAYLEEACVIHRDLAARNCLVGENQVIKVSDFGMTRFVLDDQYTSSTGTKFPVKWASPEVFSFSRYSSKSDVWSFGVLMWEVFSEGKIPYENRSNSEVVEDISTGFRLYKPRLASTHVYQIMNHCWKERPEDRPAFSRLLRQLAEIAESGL
# Assay type: cell-based
# Settings: Jurkat, read-out: % inhibition at 1 μM
compound,measurement,value
C=CC(=O)N1CCC[C@@H](n2nc(-c3ccc(Oc4ccccc4)cc3)c3c(N)ncnc32)C1 [ibrutinib],inhibition at 1 µM,> 90%
